# Tested on: circulating lymphocytes
# Experiment: Blood Lymphocyte Reduction Assay (BLR) in Rodents
# Assay type: in vivo
# Settings: Lewis rats, oral, vs vehicle group
# Experimental: Lewis rats were dosed orally with test article (as a solution or suspension in the vehicle) or vehicle alone (polyethylene glycol 300, “PEG300”). Blood was drawn at 4 hr and 24 h by retro-orbital bleeding. Blood lymphocyte counts were determined on an ADVIA 120 Hematology Analyzer (Siemens Healthcare Diagnostics). The results were measured as a reduction in the percentage of circulating lymphocytes as compared to the vehicle treated group at the 4 hr and 24 hr measurement. The results represent the average results of all animals within each treatment group (n=3-4).
# The following examples were tested in the Blood Lymphocyte Reduction assay (BLR) described hereinabove and the results are shown in Table C for rats.
Structure (SMILES),% REDUCTION IN LYMPHOCYTES AT 4 HR. (10.0 mg/kg) [%],% REDUCTION IN LYMPHOCYTES AT 4 HR. (5.0 mg/kg) [%]
"CC(C)(CCCc1nc(-c2ccc(CN3CC(C(=O)O)C3)cc2)no1)c1ccc(F)cc1 [Example 128, 1-(4-(5-(4-(4-fluorophenyl)-4-methylpentyl)-1,2,4-oxadiazol-3-yl)benzyl)-3-azetidinecarboxylic acid]",80,–
"O=C(O)C1CN(Cc2ccc(-c3noc(/C=C/C4(c5cccc(Cl)c5)CCCCC4)n3)cc2)C1 [Example 90, 1-(4-(5-((E)-2-(1-(3-chlorophenyl)cyclohexyl)vinyl)-1,2,4-oxadiazol-3-yl)benzyl)-3-azetidinecarboxylic acid]",–,85

# From patent US8822510B2, “Substituted 3-phenyl-1,2,4-Oxadiazole compounds” (Bristol-Myers Squibb Company, priority 2010, dated 2014)
